This is an account of results in patent US20240425513A1, “OXAZOLE, OXADIAZOLE, AND INDOLE DERIVATIVES FOR THE INHIBITION OF USP28” (Carmot Therapeutics, Inc., priority 2021, published 2024).

The term IC50 denotes the concentration that inhibits the measured activity by half. A higher IC50 goes with lower potency.

SMILES strings stand for the structures.

His6 USP28, sequence (Q96RU2 whole entry): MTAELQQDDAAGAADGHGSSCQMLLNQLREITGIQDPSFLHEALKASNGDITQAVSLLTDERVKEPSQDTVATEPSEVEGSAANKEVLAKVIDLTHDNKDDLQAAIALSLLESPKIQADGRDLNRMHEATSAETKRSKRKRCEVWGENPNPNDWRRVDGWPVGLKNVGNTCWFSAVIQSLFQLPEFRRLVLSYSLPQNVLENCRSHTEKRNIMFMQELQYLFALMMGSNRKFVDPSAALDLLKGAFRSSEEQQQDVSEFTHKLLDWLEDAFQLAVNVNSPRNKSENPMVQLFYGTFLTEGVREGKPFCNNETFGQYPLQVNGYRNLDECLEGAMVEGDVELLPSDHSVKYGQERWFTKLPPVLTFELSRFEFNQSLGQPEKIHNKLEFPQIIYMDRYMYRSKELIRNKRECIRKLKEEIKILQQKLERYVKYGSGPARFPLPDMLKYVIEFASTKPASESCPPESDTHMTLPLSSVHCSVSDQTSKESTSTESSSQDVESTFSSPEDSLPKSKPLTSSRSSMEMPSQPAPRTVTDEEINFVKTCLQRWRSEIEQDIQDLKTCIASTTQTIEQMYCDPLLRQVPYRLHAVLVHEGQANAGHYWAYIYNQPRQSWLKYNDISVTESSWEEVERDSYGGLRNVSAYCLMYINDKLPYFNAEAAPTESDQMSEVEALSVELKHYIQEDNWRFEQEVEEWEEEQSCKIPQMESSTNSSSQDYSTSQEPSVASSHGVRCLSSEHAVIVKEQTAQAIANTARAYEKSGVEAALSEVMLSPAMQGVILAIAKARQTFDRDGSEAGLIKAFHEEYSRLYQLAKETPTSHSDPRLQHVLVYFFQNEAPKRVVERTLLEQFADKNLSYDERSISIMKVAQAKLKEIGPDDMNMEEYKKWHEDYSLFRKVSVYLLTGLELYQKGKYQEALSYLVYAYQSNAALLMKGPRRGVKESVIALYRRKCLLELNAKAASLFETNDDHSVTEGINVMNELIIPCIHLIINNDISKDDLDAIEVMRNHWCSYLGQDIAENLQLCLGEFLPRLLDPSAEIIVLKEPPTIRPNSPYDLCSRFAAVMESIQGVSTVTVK

The assay deals with His6 USP28 (Homo sapiens (Human), UniProt Q96RU2). Nature of the assay: Ubiquitin-Rhodamine 110 assay to determine USP28 IC50. The note with it: USP28 150 pM, Ub-Rho110 41 nM, 2 h pre-incubation with enzyme, fluorescence read. The assay is classed as biochemical. Here is the method:
Example 21. Ubiquitin-Rhodamine 110 Assay to Determine USP28 IC50
Each assay was performed in a final volume of 8 μl in assay buffer containing 10 mM HEPES pH 7.3 ((1 M, pH 7.3 solution, (VWR J848), 100 mM NaCl (5 M, Corning 46-032-CV), 0.01% Triton X-100 (Sigma #T8787), 3.5 mM DTT (1 M, Sigma #43819) and 0.00375% BSA (10%, Calbiochem, #126609)). The assay buffer pH was adjusted to 7.5 using 1 N NaOH (JT Baker, #5000-03). Stock compounds were stored at −80° C. as a 25 mM in DMSO solution along with their respective 20 point 2 fold serial dilutions. For the dose responses, stock compound plates were allowed to come to room temperature the day of the assay. […] of the serial dilution series were pre stamped into assay plates (Black, high base, medium binding, Greiner #782076) for a final top screening concentration of 125 μM (DMSO final concentration=0.5%). Enzyme (His6 USP28, BostonBiochem, #E-570) concentration and incubation times were optimized for the maximal signal to background while maintaining the initial velocity conditions at a fixed substrate concentration. The final concentration of the enzyme in the assay was 150 pM. Final substrate (Ub-Rhol10, Ubiquitin-Rhodamine 110, UBPBio, #M3020) concentration was 41 nM. 2 μl of 4× enzyme was added to assay plates (pre stamped with compound) and incubated for 2 h at room temperature. […] was subsequently added to the assay plates and incubated for 2 h at room temperature. Fluorescence was then read on the Envision (Excitation 485 nm and Emission at 535 nm, Perkin Elmer).
Turning to `N#CN1C[C@H](NC(=O)COc2ccc(-c3nc(Cc4ccccc4)no3)cc2)C[C@H]1CF` [Compound 1, 2-[4-(3-Benzyl-1,2,4-oxadiazol-5-yl)phenoxy]-N-[(3R,5S)-1-cyano-5-(fluoromethyl)pyrrolidin-3-yl]acetamide], the IC50 is more than 1000 nM.
In turn, `C[C@@H]1C[C@@H](NC(=O)COc2ccc(-c3nc(Cc4ccccc4)no3)cc2)CN1C#N` [Compound 2, 2-[4-(3-Benzyl-1,2,4-oxadiazol-5-yl)phenoxy]-N-[(3R,5R)-1-cyano-5-methylpyrrolidin-3-yl]acetamide] had a half-maximal inhibitory concentration (IC50) of more than 1000 nM.
In the case of `C[C@@H]1C[C@@H](NC(=O)COc2ccc(-c3nc(Cc4cccc(Cl)c4)no3)cc2)CN1C#N` [Compound 3, 2-(4-(3-(3-Chlorobenzyl)-1,2,4-oxadiazol-5-yl)phenoxy)-N-((3R,5R)-1-cyano-5-methylpyrrolidin-3-yl)acetamide] it was 50 to 500 nM.
As for `C[C@@H]1C[C@@H](NC(=O)COc2ccc(-c3nc(Cc4ccc(Cl)cc4)no3)cc2)CN1C#N` [Compound 4, 2-(4-{3-[(4-Chlorophenyl)methyl]-1,2,4-oxadiazol-5-yl}phenoxy)-N-[(3R,5R)-1-cyano-5-methylpyrrolidin-3-yl]acetamide], the IC50 was in the range of 50 to 500 nM.
The value for `C[C@@H]1C[C@@H](NC(=O)/C=C/c2ccc(-c3nc(Cc4cccc(Cl)c4)no3)cc2)CN1C#N` [Compound 5, (E)-3-(4-(3-(3-Chlorobenzyl)-1,2,4-oxadiazol-5-yl)phenyl)-N-((3R,5R)-1-cyano-5-methylpyrrolidin-3-yl)acrylamide] was 50 to 500 nM.
Compound `C[C@@H]1C[C@@H](NC(=O)COc2ccc(-c3nc(Cc4cccc(C(F)(F)F)c4)no3)cc2)CN1C#N` [Compound 6, N-[(3R,5R)-1-Cyano-5-methylpyrrolidin-3-y1]-2-[4-(3-{[3-(trifluoromethyl)phenyl]methyl}-1,2,4-oxadiazol-5-y1)phenoxy]acetamide] yielded an IC50 of 50 to 500 nM.
The value for `COc1cccc(Cc2noc(-c3ccc(OCC(=O)N[C@@H]4C[C@@H](C)N(C#N)C4)cc3)n2)c1` [Compound 7, N-[(3R,5R)-1-Cyano-5-methylpyrrolidin-3-yl]-2-(4-{3-[(3-methoxyphenyl)methyl]-1,2,4-oxadiazol-5-yl}phenoxy)acetamide] was more than 1000 nM; that for `C[C@@H]1C[C@@H](NC(=O)COc2ccc(-c3nc(Cc4cccc(C#N)c4)no3)cc2)CN1C#N` [Compound 8, N-((3R,5R)-1-Cyano-5-methylpyrrolidin-3-yl)-2-(4-(3-(3-cyanobenzyl)-1,2,4-oxadiazol-5-yl)phenoxy)acetamide] was 500 to 1000 nM; that for `Cc1cccc(Cc2noc(-c3ccc(OCC(=O)N[C@@H]4C[C@@H](C)N(C#N)C4)cc3)n2)c1` [Compound 9, N-[(3R,5R)-1-Cyano-5-methylpyrrolidin-3-yl]-2-(4-{3-[(3-methylphenyl)methyl]-1,2,4-oxadiazol-5-yl}phenoxy)acetamide] was 50 to 500 nM.
The value for `C[C@@H]1C[C@@H](NC(=O)NCc2ccc(-c3nc(Cc4cccc(Cl)c4)no3)cc2)CN1C#N` [Compound 10, 1-(4-(3-(3-Chlorobenzyl)-1,2,4-oxadiazol-5-yl)benzyl)-3-((3R,5R)-1-cyano-5-methylpyrrolidin-3-yl)urea] was 50 to 500 nM.
For the compound `C[C@@H]1C[C@@H](NC(=O)COc2ccc(-c3nc(Cc4cccc(Cl)c4)no3)nc2)CN1C#N` [Compound 12, 2-[(6-{3-[(3-Chlorophenyl)methyl]-1,2,4-oxadiazol-5-yl}pyridin-3-yl)oxy]-N-[(3R,5R)-1-cyano-5-methylpyrrolidin-3-yl]acetamide], the 50% inhibitory concentration (IC50) was more than 1000 nM.
In the case of `C/C(=C\c1ccc(-c2nc(Cc3cccc(Cl)c3)no2)cc1)C(=O)N[C@@H]1C[C@@H](C)N(C#N)C1` [Compound 13, (E)-3-(4-(3-(3-chlorobenzyl)-1,2,4-oxadiazol-5-yl)phenyl)-N-((3R,5R)-1-cyano-5-methylpyrrolidin-3-yl)-2-methylacrylamide] it was 500 to 1000 nM; in that of `Cc1oc(Cc2cccc(Cl)c2)nc1-c1ccc(/C=C/C(=O)N[C@@H]2C[C@@H](C)N(C#N)C2)cc1` [Compound 14, (E)-3-(4-(2-(3-Chlorobenzyl)-5-methyloxazol-4-yl)phenyl)-N-((3R,5R)-1-cyano-5-methylpyrrolidin-3-yl)acrylamide], 50 to 500 nM; in that of `Cc1oc(Cc2cccc(Cl)c2)nc1-c1ccc(/C=C/C(=O)N[C@H]2CN[C@H](C)C2)cc1` [Compound 15, (E)-3-(4-(2-(3-Chlorobenzyl)-5-methyloxazol-4-yl)phenyl)-N-((3R,5R)-5-methylpyrrolidin-3-yl)acrylamide], 50 to 500 nM.
`C[C@@H]1C[C@@H](NC(=O)Cc2ccc(-c3nc(Cc4cccc(Cl)c4)no3)cc2)CN1C#N` [Compound 16, 2-(4-{3-[(3-Chlorophenyl)methyl]-1,2,4-oxadiazol-5-yl}phenyl)-N-[(3R,5R)-1-cyano-5-methylpyrrolidin-3-yl]acetamide] returned an IC50 of more than 1000 nM.
The value for `C[C@@H]1C[C@@H](NC(=O)/C=C/c2cccc(-c3nc(Cc4cccc(Cl)c4)no3)c2)CN1C#N` [Compound 17, (2E)-3-(3-{3-[(3-Chlorophenyl)methyl]-1,2,4-oxadiazol-5-yl}phenyl)-N-[(3R,5R)-1-cyano-5-methylpyrrolidin-3-yl]prop-2-enamide] was more than 1000 nM.
The value for `CN(C)C(=O)c1ccc(OCc2ccc(-c3nc(Cc4cccc(Cl)c4)no3)cc2)cc1` [Compound 18, 4-((4-(3-(3-Chlorobenzyl)-1,2,4-oxadiazol-5-yl)benzyl)oxy)-N,N-dimethylbenzamide] was 50 to 500 nM; that for `Cc1ccc(C(=O)NCc2ccc(-c3nc(Cc4cccc(Cl)c4)no3)cc2)cn1` [Compound 19, N-[(4-{3-[(3-Chlorophenyl)methyl]-1,2,4-oxadiazol-5-yl}phenyl)methyl]-6-methylpyridine-3-carboxamide] was 500 to 1000 nM.
The value for `Cc1oc(Cc2cccc(Cl)c2)nc1-c1ccc(COc2ccc(C(=O)N(C)C)cc2)cc1` [Compound 21, 4-((4-(2-(3-Chlorobenzyl)-5-methyloxazol-4-yl)benzyl)oxy)-N,N-dimethylbenzamide] was less than 50 nM.
`Cc1oc(Cc2cccc(Cl)c2)nc1-c1ccc(OCc2ccc(C(=O)N(C)C)cc2)cc1` [Compound 22, 4-((4-(2-(3-Chlorobenzyl)-5-methyloxazol-4-yl)phenoxy)methyl)-N,N-dimethylbenzamide]: the IC50 is less than 50 nM.
The value for `Cc1oc(Cc2cccc(Cl)c2)nc1-c1ccc(OCc2cc(C(=O)N(C)C)n(C)n2)cc1` [Compound 23, 3-((4-(2-(3-Chlorobenzyl)-5-methyloxazol-4-yl)phenoxy)methyl)-N,N,1-trimethyl-1H-pyrazole-5-carboxamide] was 50 to 500 nM; that for `Cc1oc(Cc2cccc(Cl)c2)nc1-c1ccc(OCc2ccc(C(=O)N(C)C)cn2)cc1` [Compound 24, 6-[(4-{2-[(3-Chlorophenyl)methyl]-5-methyl-1,3-oxazol-4-yl}phenoxy)methyl]-N,N-dimethylpyridine-3-carboxamide] was less than 50 nM.
As to `Cc1oc(Cc2cccc(Cl)c2)nc1-c1ccc(OCc2ccc(C(=O)N(C)C)nn2)cc1` [Compound 25, 6-[(4-{2-[(3-Chlorophenyl)methyl]-5-methyl-1,3-oxazol-4-yl}phenoxy)methyl]-N,N-dimethylpyridazine-3-carboxamide], the IC50 is less than 50 nM.
